Assays:
[1] = system: Candida albicans; assay: Activity against crop candidosis in turkeys; type: in vivo; conditions: medicated feed for 13 consecutive days from day of infection, crops of 50% of animals completely negative for Candida albicans
Protocol: Turkeys of 14 days old are infected in the crop with 4.10^6 Candida albicans cells, grown on Sabouraud broth for 48 hours at 37° C. and diluted with saline. The volume of the inoculum is 1 ml. The drugs under investigation are premixed in 500 mg of lacton and thereafter admixed in 1000 g of meal without any additives. The concentration of the drug under investigation in the meal is expressed in mg/kg. The animals are given the medicated feed for 13 consecutive days starting on the day of infection. At the end of the experiment all animals are sacrificed. At autopsy the crops are removed, emptied and grinded in an ultra-turrax mixer in 15 ml of sterile saline. Colony counting is done on Sabouraud agar and the results given in the table represents the ED50, i.e., the dose of the drug whereby the crops of 50% of the animals are completely negative for Candida albicans.

[2] = system: Candida albicans; assay: Activity against vaginal candidosis in rats; type: in vivo, Female Wistar rats; conditions: 336 h, oral, once a day for two days from day of infection, active at the 14th day after infection, read-out: Vaginal candidosis in rats: lowest effective dose in mg/kg orally
Protocol: Female Wistar rats of ±100 g body weight are used. They are ovariectomized and hysterectomized and after three weeks of recovery, 100 μg of oestradiol undecylate in sesame oil is given subcutaneously once a week for 3 consecutive weeks. The thus induced pseudooestrus is controlled by microscopic examination of vaginal smears. Food and water are left available ad libitum. The rats are infected intravaginally with 8.10^5 cells of Candida albicans, grown on Sabouraud broth for 48 hours at 37° C. and diluted with saline. The date of infection varies from day +25 to day +32 after surgical intervention, depending on the appearance of signs of induced pseudooestrus. The drugs under investigation are administered orally once a day for two days starting from the day of infection. For each experiment there are placebo treated controls. The results are assessed by taking vaginal smears with sterile swabs on several days after the infection. The swabs are put into Sabouraud broth in petri-dishes and incubated for 48 hours at 37° C. If no growth of Candida albicans occurs, i.e., when the animals are negative at the end of the experiment, this is due to drug administration because it never happens in placebo treated controls. The table below gives the lowest oral dose of the drug under investigation which is found active at the 14th day after infection.

## O=C(C=Cc1ccc(Cl)cc1)N1CCN(c2ccc(OC[C@H]3CO[C@](Cn4cncn4)(c4ccc(Cl)cc4Cl)O3)cc2)CC1
[1]
  Crop candidosis in turkeys: ED50 in mg/kg feed: 16 mg/kg feed

## CCOC(=O)COC(=O)N1CCN(c2ccc(OC[C@H]3CO[C@](Cn4ccnc4)(c4ccc(Cl)cc4Cl)O3)cc2)CC1 (relative stereo)
[2]
  minimal effective dose: 2.5 mg/kg
[1]
  Crop candidosis in turkeys: ED50 in mg/kg feed: 31 mg/kg feed

## Cc1ccccc1NC(=O)CN1CCN(c2ccc(OC[C@H]3CO[C@](Cn4ccnc4)(c4ccc(Cl)cc4Cl)O3)cc2)CC1 (relative stereo)
[2]
  minimal effective dose: 2.5 mg/kg
[1]
  Crop candidosis in turkeys: ED50 in mg/kg feed: 16 mg/kg feed

## Cc1ccc(NC(=O)CN2CCN(c3ccc(OC[C@H]4CO[C@](Cn5ccnc5)(c5ccc(Cl)cc5Cl)O4)cc3)CC2)cc1 (relative stereo)
[1]
  Crop candidosis in turkeys: ED50 in mg/kg feed: 16 mg/kg feed

## O=C(CN1CCN(c2ccc(OC[C@H]3CO[C@](Cn4ccnc4)(c4ccc(Cl)cc4Cl)O3)cc2)CC1)Nc1c(Cl)cccc1Cl (relative stereo)
[2]
  minimal effective dose: 2.5 mg/kg
[1]
  Crop candidosis in turkeys: ED50 in mg/kg feed: 31 mg/kg feed

## Clc1ccc(CN2CCN(c3ccc(OC[C@H]4CO[C@](Cn5ccnc5)(c5ccc(Cl)cc5Cl)O4)cc3)CC2)cc1 (relative stereo)
[1]
  Crop candidosis in turkeys: ED50 in mg/kg feed: < 31 mg/kg feed

## Cc1ccc(S(=O)(=O)N2CCN(c3ccc(OC[C@H]4CO[C@](Cn5cncn5)(c5ccc(Cl)cc5Cl)O4)cc3)CC2)cc1 (relative stereo)
[1]
  Crop candidosis in turkeys: ED50 in mg/kg feed: < 31 mg/kg feed

— patent publication US4503055A, “Derivatives of [4-(piperazin-1-yl-phenyloxymethyl)-1,3-dioxolan-2-ylmethyl]-1H-imidazol es and 1H-1,2,4-triazoles” (Janssen Pharmaceutica, N.V., priority 1981, dated 1985)
